Molecules are shown by their SMILES.

Series [1] in a line: Oral absorption (general statements). In kind it is in vivo. Conditions: orally administered.
The conditions of series [2]: cited from earlier work.
For series [3] the following is noted: cited from earlier work. The source holds these as a separate data set.
For series [4] the following is noted: well known in the art; cited from earlier work.

In the case of `CNCC(O)c1ccc(OC(=O)C(C)(C)C)c(OC(=O)C(C)(C)C)c1` (centres unmarked) [Dipivefrin, 4-(1-hydroxy-2-(methylamino)ethyl)-1,2-phenylene bis(2,2-dimethylpropanoate)], the “absorption after oral administration” value in series [1] is “well absorbed”. The “amount entering the rabbit eye relative to epinephrine” value in series [2] is reported as “eight to ten times more”. Moreover, in series [3] (0.5% solution instilled in human eyes, within 30 minutes), the “dipivefrin converted into epinephrine” value was 80%. The “ocular penetration relative to epinephrine (times greater)” value in series [3] (human eyes) was 17 times.

Take `CNC[C@H](O)c1ccc(O)c(O)c1` [epinephrine]: the “absorption when taken orally” value in series [4] is on record as “not absorbed”.

The values above are taken from patent US11213484B2, “Dipivefrin orally disintegrating tablet formulations” (priority 2019, dated 2022).
